Measured values taken from publication doi:10.1101/2023.10.20.563248v1 (biorxiv, 2023).

Assays:
Conditions in all cases: 1 µM; inhibitor
[1] = target: CHK2 (Homo sapiens, UniProt O96017)
[2] = target: NEK4 (Homo sapiens, UniProt P51957)
[3] = target: ABL2 (Homo sapiens, UniProt P42684)
[4] = target: ERBB4 (Homo sapiens, UniProt Q15303)
[5] = target: EPHA5 (Homo sapiens, UniProt P54756)
[6] = target: GRK4 (Homo sapiens, UniProt P32298)
[7] = target: FAK (Homo sapiens, UniProt Q05397)
[8] = target: CSF1R (Homo sapiens, UniProt P07333)
[9] = target: YES (Homo sapiens, UniProt P07947)
[10] = target: MTOR (Homo sapiens, UniProt P42345)
[11] = target: PDK1 (Homo sapiens, UniProt O15530)
PDK1, sequence (O15530 whole entry): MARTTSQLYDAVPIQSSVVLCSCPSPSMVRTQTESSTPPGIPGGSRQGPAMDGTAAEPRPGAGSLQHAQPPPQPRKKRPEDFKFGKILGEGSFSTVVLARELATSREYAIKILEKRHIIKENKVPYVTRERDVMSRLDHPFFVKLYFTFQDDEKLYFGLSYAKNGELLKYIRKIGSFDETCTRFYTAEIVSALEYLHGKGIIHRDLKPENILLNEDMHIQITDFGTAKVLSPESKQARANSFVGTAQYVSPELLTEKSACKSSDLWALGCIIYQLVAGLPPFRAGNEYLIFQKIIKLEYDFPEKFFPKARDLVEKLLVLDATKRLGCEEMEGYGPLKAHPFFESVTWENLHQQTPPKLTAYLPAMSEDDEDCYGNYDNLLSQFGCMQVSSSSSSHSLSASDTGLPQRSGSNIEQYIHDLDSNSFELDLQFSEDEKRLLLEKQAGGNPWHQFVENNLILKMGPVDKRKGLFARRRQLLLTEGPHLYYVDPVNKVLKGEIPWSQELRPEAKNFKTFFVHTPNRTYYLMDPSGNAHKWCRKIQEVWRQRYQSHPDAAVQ

[12] = target: CDK5/p35NCK (Homo sapiens, UniProt Q00535)
[13] = target: TSK2 (Homo sapiens, UniProt Q96PF2)
TSK2, sequence (Q96PF2 whole entry): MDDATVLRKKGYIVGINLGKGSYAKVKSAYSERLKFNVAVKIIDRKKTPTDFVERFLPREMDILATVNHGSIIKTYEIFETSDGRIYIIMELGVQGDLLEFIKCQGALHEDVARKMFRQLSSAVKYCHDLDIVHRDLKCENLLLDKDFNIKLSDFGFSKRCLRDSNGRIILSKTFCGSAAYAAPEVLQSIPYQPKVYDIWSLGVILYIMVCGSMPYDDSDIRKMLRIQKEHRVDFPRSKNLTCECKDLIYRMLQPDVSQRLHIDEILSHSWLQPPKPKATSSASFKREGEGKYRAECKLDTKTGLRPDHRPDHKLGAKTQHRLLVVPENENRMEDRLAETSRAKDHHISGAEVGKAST

[14] = target: CK1e (Homo sapiens, UniProt P49674)
[15] = target: EPHB4 (Homo sapiens, UniProt P54760)
[16] = target: VRK2 (Homo sapiens, UniProt Q86Y07)
[17] = target: EIF2AK3 (Homo sapiens, UniProt Q9NZJ5)
[18] = target: PKCe (Homo sapiens, UniProt Q02156)
[19] = target: MERTK (Homo sapiens, UniProt Q12866)
MERTK, sequence (Q12866 whole entry): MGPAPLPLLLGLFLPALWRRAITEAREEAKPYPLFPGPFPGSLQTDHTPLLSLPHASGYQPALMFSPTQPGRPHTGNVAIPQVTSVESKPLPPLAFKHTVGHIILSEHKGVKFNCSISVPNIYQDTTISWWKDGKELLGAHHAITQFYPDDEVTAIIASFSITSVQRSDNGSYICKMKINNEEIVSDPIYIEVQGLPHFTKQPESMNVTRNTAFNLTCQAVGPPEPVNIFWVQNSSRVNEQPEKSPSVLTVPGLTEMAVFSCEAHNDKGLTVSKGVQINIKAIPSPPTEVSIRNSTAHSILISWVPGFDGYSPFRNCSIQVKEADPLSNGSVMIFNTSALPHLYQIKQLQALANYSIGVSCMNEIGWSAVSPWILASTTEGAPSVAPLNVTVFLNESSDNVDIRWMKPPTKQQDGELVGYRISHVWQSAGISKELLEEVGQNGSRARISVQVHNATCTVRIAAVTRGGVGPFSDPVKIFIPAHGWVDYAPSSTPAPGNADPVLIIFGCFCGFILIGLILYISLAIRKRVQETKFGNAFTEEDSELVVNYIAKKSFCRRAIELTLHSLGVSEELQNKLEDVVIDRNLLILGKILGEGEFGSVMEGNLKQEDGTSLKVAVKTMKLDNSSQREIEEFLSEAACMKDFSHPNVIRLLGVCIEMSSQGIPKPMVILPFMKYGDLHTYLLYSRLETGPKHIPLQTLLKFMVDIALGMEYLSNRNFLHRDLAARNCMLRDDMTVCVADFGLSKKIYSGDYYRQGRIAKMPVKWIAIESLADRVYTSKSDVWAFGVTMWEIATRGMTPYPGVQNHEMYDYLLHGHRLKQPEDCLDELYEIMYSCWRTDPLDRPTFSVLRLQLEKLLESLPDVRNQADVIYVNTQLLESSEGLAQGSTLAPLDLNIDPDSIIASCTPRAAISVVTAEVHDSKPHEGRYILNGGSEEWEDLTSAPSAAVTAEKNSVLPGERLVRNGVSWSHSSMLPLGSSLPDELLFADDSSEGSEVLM

[20] = target: MAP3K10 (Homo sapiens, UniProt Q02779)
[21] = target: IGF1R (Homo sapiens, UniProt P08069)
[22] = target: PYK2 (Homo sapiens, UniProt Q14289)
[23] = target: ACVR1 (Homo sapiens, UniProt Q04771)
[24] = target: SAK (Homo sapiens, UniProt O00444)
SAK, sequence (O00444 whole entry): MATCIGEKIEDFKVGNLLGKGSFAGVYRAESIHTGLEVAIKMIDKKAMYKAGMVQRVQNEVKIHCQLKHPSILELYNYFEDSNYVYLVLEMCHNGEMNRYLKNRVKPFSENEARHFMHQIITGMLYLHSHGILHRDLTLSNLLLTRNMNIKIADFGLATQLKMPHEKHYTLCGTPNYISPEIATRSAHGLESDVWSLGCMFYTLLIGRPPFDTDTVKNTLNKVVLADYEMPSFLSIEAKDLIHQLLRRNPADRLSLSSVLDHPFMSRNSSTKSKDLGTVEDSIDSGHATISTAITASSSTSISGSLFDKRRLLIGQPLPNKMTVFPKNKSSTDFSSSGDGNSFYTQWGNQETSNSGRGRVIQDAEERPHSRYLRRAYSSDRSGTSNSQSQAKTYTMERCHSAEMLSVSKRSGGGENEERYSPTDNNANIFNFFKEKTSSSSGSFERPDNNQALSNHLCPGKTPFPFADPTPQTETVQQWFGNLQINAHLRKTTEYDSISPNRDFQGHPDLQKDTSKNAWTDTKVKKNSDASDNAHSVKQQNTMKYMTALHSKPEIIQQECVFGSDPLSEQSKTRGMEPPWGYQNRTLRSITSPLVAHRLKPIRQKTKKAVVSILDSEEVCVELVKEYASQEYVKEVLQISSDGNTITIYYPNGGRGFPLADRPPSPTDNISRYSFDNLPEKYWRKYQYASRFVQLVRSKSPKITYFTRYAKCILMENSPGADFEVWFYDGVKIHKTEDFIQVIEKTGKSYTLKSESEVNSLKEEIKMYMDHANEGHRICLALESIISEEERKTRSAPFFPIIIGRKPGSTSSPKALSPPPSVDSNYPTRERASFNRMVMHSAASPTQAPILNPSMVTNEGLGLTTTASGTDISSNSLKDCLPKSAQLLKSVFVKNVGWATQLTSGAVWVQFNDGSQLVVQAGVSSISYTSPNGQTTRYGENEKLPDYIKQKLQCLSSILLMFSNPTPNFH

[25] = target: CK1g1 (Homo sapiens, UniProt Q9HCP0)
[26] = target: FRK (Homo sapiens, UniProt P42685)
[27] = target: ROCK2 (Homo sapiens, UniProt O75116)
[28] = target: SNK (Homo sapiens, UniProt Q9NYY3)
[29] = target: MEK5 (Homo sapiens, UniProt Q13163)
[30] = target: PASK (Homo sapiens, UniProt Q96RG2)
[31] = target: DNAPK (Homo sapiens, UniProt P78527)

ABL2, sequence (P42684 whole entry): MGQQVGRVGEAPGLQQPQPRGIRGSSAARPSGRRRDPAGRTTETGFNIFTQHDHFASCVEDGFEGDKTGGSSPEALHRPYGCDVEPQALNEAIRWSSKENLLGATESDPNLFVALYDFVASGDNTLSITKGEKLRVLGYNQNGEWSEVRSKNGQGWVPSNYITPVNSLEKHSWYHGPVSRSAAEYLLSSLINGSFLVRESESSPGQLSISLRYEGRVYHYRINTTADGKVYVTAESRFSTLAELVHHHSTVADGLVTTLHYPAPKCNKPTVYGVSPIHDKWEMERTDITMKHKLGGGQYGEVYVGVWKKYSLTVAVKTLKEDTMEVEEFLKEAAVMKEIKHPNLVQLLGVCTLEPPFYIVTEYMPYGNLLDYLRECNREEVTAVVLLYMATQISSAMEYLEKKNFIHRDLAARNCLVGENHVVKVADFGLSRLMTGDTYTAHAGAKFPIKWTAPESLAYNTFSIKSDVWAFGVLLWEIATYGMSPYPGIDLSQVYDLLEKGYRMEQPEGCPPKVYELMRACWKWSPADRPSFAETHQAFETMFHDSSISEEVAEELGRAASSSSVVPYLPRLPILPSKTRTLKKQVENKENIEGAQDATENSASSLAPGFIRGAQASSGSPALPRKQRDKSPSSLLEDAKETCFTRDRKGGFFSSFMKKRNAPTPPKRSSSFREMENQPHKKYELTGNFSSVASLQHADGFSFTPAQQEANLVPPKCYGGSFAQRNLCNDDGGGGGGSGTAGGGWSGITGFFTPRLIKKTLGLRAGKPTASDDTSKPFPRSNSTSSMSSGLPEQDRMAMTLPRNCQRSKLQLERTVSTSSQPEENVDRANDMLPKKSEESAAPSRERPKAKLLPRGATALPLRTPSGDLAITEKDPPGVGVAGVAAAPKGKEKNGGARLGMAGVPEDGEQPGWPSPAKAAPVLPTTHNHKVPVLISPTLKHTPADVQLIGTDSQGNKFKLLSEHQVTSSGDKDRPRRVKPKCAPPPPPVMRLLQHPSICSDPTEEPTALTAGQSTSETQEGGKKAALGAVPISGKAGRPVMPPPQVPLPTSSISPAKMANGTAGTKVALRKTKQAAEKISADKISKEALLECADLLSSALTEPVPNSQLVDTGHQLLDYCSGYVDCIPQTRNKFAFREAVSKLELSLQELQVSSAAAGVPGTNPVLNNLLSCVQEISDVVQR
EPHA5, sequence (P54756 whole entry): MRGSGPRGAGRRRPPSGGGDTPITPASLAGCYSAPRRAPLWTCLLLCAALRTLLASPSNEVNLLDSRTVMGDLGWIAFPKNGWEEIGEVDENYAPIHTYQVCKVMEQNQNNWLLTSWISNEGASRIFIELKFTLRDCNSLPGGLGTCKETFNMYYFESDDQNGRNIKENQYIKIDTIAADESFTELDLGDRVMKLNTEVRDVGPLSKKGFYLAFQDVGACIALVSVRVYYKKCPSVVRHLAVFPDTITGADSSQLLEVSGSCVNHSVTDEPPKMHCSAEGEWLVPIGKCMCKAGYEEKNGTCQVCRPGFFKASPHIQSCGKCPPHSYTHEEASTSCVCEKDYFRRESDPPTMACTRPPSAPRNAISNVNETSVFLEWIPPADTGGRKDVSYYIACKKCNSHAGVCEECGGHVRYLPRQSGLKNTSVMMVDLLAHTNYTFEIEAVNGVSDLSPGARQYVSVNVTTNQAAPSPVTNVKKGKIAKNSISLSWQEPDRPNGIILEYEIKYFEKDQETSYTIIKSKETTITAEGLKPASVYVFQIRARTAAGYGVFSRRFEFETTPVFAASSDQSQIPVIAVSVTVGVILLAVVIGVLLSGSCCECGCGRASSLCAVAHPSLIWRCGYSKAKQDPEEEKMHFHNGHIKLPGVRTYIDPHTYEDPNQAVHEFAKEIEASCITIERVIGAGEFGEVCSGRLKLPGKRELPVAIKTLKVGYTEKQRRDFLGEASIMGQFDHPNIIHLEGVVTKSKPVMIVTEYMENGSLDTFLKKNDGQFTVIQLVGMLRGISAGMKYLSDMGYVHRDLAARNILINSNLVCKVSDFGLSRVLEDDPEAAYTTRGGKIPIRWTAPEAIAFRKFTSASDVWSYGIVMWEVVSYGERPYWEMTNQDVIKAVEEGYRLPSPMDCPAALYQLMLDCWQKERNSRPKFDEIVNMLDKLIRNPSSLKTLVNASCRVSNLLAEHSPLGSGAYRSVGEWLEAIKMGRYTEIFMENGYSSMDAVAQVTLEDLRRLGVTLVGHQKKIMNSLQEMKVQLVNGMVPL

SMILES: O=C1NCCCCCNc2nc(c3ccccc3n2)Nc2cc1[nH]n2 [21c, (Z)-3^1H-2,5,11-triaza-1(4,2)-quinazolina-3(3,5)-pyrazolacycloundecaphan-4-one]
- 21c Remaining activity, percent of control [%] [1]: 84.0%
- 21c Remaining activity, percent of control [%] [2]: 103.8%
- 21c Remaining activity, percent of control [%] [3]: 84.2%
- 21c Remaining activity, percent of control [%] [4]: 90.7%
- 21c Remaining activity, percent of control [%] [5]: 98.4%
- 21c Remaining activity, percent of control [%] [6]: 112.1%
- 21c Remaining activity, percent of control [%] [7]: 91.4%
- 21c Remaining activity, percent of control [%] [8]: 90.9%
- 21c Remaining activity, percent of control [%] [9]: 81.2%
- 21c Remaining activity, percent of control [%] [10]: 99.2%
- 21c Remaining activity, percent of control [%] [11]: 99.5%
- 21c Remaining activity, percent of control [%] [12]: 96.6%
- 21c Remaining activity, percent of control [%] [13]: 93.8%
- 21c Remaining activity, percent of control [%] [14]: 103.1%
- 21c Remaining activity, percent of control [%] [15]: 86.1%
- 21c Remaining activity, percent of control [%] [16]: 96.9%
- 21c Remaining activity, percent of control [%] [17]: 87.8%
- 21c Remaining activity, percent of control [%] [18]: 86.5%
- 21c Remaining activity, percent of control [%] [19]: 44.2%
- 21c Remaining activity, percent of control [%] [20]: 94.4%
- 21c Remaining activity, percent of control [%] [21]: 102.9%
- 21c Remaining activity, percent of control [%] [22]: 80.8%
- 21c Remaining activity, percent of control [%] [23]: 81.0%
- 21c Remaining activity, percent of control [%] [24]: 86.5%
- 21c Remaining activity, percent of control [%] [25]: 102.2%
- 21c Remaining activity, percent of control [%] [26]: 104.0%
- 21c Remaining activity, percent of control [%] [27]: 89.7%
- 21c Remaining activity, percent of control [%] [28]: 78.3%
- 21c Remaining activity, percent of control [%] [29]: 70.1%
- 21c Remaining activity, percent of control [%] [30]: 100.8%
- 21c Remaining activity, percent of control [%] [31]: 100.7%
